The source of these data is US10945972B2, “Particulate materials” (Nektar Therapeutics, priority 2002, dated 2021).

Common to all, as to format: physicochemical
Data set [1] is described as follows: Particle size by Helos/Rodos laser diffraction (Example 1). Conditions: geometric projection-equivalent volume mean diameter.
The nature of data set [2]: Inverse gas chromatography of TBS (Example 8). Here is the method:
An empty GC column was uniformly packed with the powder of interest (TBS). Pre-silanized commercially available straight glass columns of 30 cm length with a 3 mm internal diameter were used in this investigation. The silanation procedure was necessary to minimize active sites on the inner glass surfaces, which strongly interact with polar probes. Each column was packed at the detector end with a small amount of silanised glass wool, was clipped to a stand and powder was added through a glass funnel with the aid of a mechanical column packer (tapping) to improve powder flow and remove any air gaps. […] A. Hewlett Packard 6890 Series Gas Chromatograph (GC) (Hewlett Packard, Penna, USA) oven equipped with an autosampler was used to control the solvent temperature. The 6890 GC data acquisition system was used to record data from a thermal conductivity detector (TCD) and flame ionisation detector (FID) with the instrument modified for IGC by Surface Measurement Systems (SMS), Manchester, UK. The combination of detectors allowed sensitive analysis of both organic vapour elution and water (although RH was not raised above 0% for these experiments).
The whole system was fully automated by control software (SMS iGC Controller v1.3) and the data analyzed using SMS iGC Analysis macros. Prior to analysis, each column was equilibrated at 30° C. and 0% relative humidity (RH) for 5 hours by passing dry helium gas through the column. Helium gas was also used as the carrier gas. Hydrogen and compressed air flow rates were set at 40 and 450 ml min respectively for the FID. The chromatograph injection port was maintained at 80° C., TCD detector at 150° C. and the FID detector at 150° C. Column temperature was set at 30° C. throughout analysis. Data were obtained by flowing helium gas at 10 ml min^−1 through the sinalized glass column packed with a known weight of powdered material and injecting small amounts (concentration P/Po=0.05) of a range of probe vapors with different polarities. The retention times of the probes were measured using SMS iGC Controller v1.3 software, at infinite dilution or near zero surface coverage (equivalent to 10^−4-10^−7 μl of liquid) where retention is independent of the quantity of probe injected. For each sample, two columns were prepared and analysed by employing a method based on standard settings, which allows the precise control and measurement of experimental variables. This is essential in producing meaningful results. The data were used to calculate the dispersive and non-dispersive forces acting at TBS particle surfaces using the method developed by Schultz and co-workers (J. Schultz, L. Lavielle and C. Martin. The role of the interface in carbon fibre-epoxy composites, J. Adhesion, 23, 45-60 (1987)).

Data set [3] can be described thus: AEROFLOW powder avalanching (Example 8). Conditions: listed as TBS 2. How it is done:
An AEROFLOW™ powder avalanching apparatus (Amherst Process Instruments, API, Amherst, USA) was employed to analyze the dynamic avalanching behaviour of micronized and SC processed TBS samples. The AEROFLOW™ apparatus consists of a transparent rotating drum with a port at the front. A white light source is positioned in front of the drum and a masked array of photocells is behind the drum. To measure avalanching, 50 ml of the drug powder was added to the drum, which is about 15% of its total volume to ensure good powder mixing during the operation. As the drum rotates, the powder bed is carried upwards until an unstable state is reached and an avalanche occurs.
The time between successive avalanches was recorded by the projection of the light beam through the drum onto the photocell array. The photocells generated a voltage dependent on the amount of light falling on the cells and the area of unmasked photocells shielded from the light source by the powder. The voltage output (transmitted light intensity) was recorded by a computer, which translates the output as powder movement using a technique disclosed in B. H. Kaye. Characterizing the flowability of a powder using the concepts of fractal geometry and chaos theory, Part. Part. Charact. 14: 53-66 (1997). Each TBS sample was tested in duplicate and mean avalanche time and irregularity (scatter) of avalanches were recorded.

Take `CC(C)(C)NCC(O)c1cc(O)cc(O)c1` (centres unmarked) [TSB SEDS, terbutaline sulphate]: the “VMD (μm) (laser diffraction)” value in data set [1] came out at 3.43 μm. Also, in data set [2] (30° C., 0% RH, listed as TBS 2), the “γs^D mJm^−2” value was 55.05 mJm^−2. In data set [2] (listed as TBS 2), the KA is 0.778. For the same molecule, in data set [2] (probe acetone, listed as TBS 2), the “−ΔGA^SP (kJ/mol) Acetone” value was 10.42 kJ/mol. In data set [2] (probe dioxane), the “−ΔGA^SP (kJ/mol) Dioxane” value was found to be 14.20 kJ/mol. Moreover, the “−ΔGA^SP (kJ/mol) Ethyl acetate” value in data set [2] (probe ethyl acetate, listed as TBS 2) worked out at 13.76 kJ/mol. Also, the “−ΔGA^SP (kJ/mol) Toluene” value in data set [2] (probe toluene, listed as TBS 2) is on record as 2.85 kJ/mol. Moreover, the “Irregularity of flow” value in data set [3] (100 sec/rev) came out at 1.17 s; in data set [3] (145 sec/rev) it was 2.12 s. For the same molecule, the “Mean time to avalanche” value came to 3.30 s in data set [3] (100 sec/rev) and 4.91 s in data set [3] (145 sec/rev).
